Experimental data published in patent EP3327020A1, “CITRATE SALTS OF A JANUS KINASE (JAK) INHIBITOR” (SANDOZ AG, priority 2016, dated 2018).
Converted amounts (≈) assume the structure as drawn. “Also recorded” adds a separate entry of the source.

Experiment: Solubility in 0.1N aqueous HCl (saturated solution stirred at 37 °C for 1 hour, filtered, baricitinib concentration of the mother liquor determined by HPLC)
Format: physicochemical
Conditions: for solubility at 1 h: simulated gastric fluid, thermodynamic from solid, read-out: Solubility in 0.1N aqueous HCl after 1 hour
Method: The solubilities of baricitinib free base, phosphate, trifluoroacetate, monocitrate and dicitrate in 0.1N HCl have been determined. […] Thereafter, the solid was removed by filtration and the baricitinib concentration of the mother liquor was determined by HPLC.
The absolute solubility values were calculated from a calibration curve generated with solutions of known baricitinib concentrations and are listed in Table 5. Table 5: Comparative solubility data in 0.1N aqueous hydrochloric acid

[1] = 0.1N aqueous HCl, 37 °C, 1 hour, baricitinib concentration by HPLC

| SMILES | Solubility in 0.1N aqueous HCl after 1 hour [1] | solubility compared to the free base form (in words) (0.1N aqueous hydrochloric acid, listed as phosphate salt of baricitinib) | solubility relative to the solubility of baricitinib free base (0.1N aqueous hydrochloric acid) | solubility at 1 h [1] |
| --- | --- | --- | --- | --- |
| CCS(=O)(=O)N1CC(CC#N)(n2cc(-c3ncnc4[nH]ccc34)cn2)C1.O=P(O)(O)O [Phosphate salt of WO 2009/114512 A1] | 26 mg/mL | only a slightly increased solubility; also recorded: only slightly improved solubility values | – | – |
| CCS(=O)(=O)N1CC(CC#N)(n2cc(-c3ncnc4[nH]ccc34)cn2)C1.O=C(O)CC(O)(CC(=O)O)C(=O)O.O=C(O)CC(O)(CC(=O)O)C(=O)O [{1-(Ethylsulfonyl)-3-[4-(7H-pyrrolo[2,3-d]pyrimidin-4-yl)-1H-pyrazol-1-yl]azetidin-3-yl}acetonitrile dicitrate] | – | – | more than 2 fold | > 50 mg/mL |
| CCS(=O)(=O)N1CC(CC#N)(n2cc(-c3ncnc4[nH]ccc34)cn2)C1.O=C(O)CC(O)(CC(=O)O)C(=O)O [{1-(Ethylsulfonyl)-3-[4-(7H-pyrrolo[2,3-d]pyrimidin-4-yl)-1H-pyrazol-1-yl]azetidin-3-yl}acetonitrile monocitrate] | – | – | more than 2 fold | > 50 mg/mL |
| CCS(=O)(=O)N1CC(CC#N)(n2cc(-c3ncnc4[nH]ccc34)cn2)C1 [{1-(Ethylsulfonyl)-3-[4-(7H-pyrrolo[2,3-d]pyrimidin-4-yl)-1H-pyrazol-1-yl]azetidin-3-yl}acetonitrile] | – | – | – | 25 mg/mL (≈ 67.3 mM) |
